In article PMC12519282, “Reduction of Negative Charge in Mercaptoacetyl-Based Chelators Influences the Biodistribution of Prostate-Specific Membrane Antigen-Targeting Pseudopeptides Labeled with Technetium-99m” (ACS Pharmacology & Translational Science, 2025):
Where two headings read alike, the source gives them in different places. Marks after values point to notes of the source that are not given here.

Assays:
[1] = type: in vitro ADME, murine; conditions: 1 h
Experimental: (§1) To evaluate the label’s stability, 10 μL (0.25 μg) of radiolabeled conjugates was incubated with 300× molar excess of cysteine or with PBS for 1 h at room temperature. The test was run in triplicate. The release of free technetium-99m was controlled by using iTLC and radio-HPLC analysis. The stability in serum was analyzed by mixing the radioconjugates (0.25 μg in 10 μL) with murine serum or PBS (40 μL) as a control. The samples were incubated for 1 h at 37 °C and analyzed by iTLC. The experiment was performed in triplicate. The octanol–water distribution coefficient (Log D) was determined experimentally by the addition of 100 pmol of the radiolabeled tracer to an Eppendorf tube containing PBS (500 μL) and n-octanol (500 μL), pH ∼ 7.4. The solution was vortexed and centrifuged, and aliquots (50 μL) from each phase were collected and measured using a gamma counter. The experiment was performed in triplicate.

physchem = type: physicochemical; conditions: pH 7.4
Experimental: as §1

PC3-pip cells [2] = test: in vitro binding specificity test; type: cell-based; conditions: 1 h, 37 °C
Experimental: For the in vitro binding specificity test, approximately 8 × 10^5 PC3-pip cells per well were seeded 24 h before the experiment. […] Technetium-99m-labeled tracers were added to each well to reach a concentration of 2 nM. After 1 h of incubation at 37 °C, cells were washed with PBS solution, detached, and collected. Cell-associated activity was measured using a gamma counter and presented as the percentage of added activity.

PSMA = biological target: T1, PSMA (Homo sapiens, UniProt Q04609); test: binding kinetics in real time on living PC3-pip cells (LigandTracer Yellow)
T1 construct: expressed in transfected cells; host or cells: PC3-pip (PSMA-transfected PC-3 prostate carcinoma cells), from Prof; Martin G. Pomper, Johns Hopkins University
Experimental: The binding kinetics of technetium-99m-labeled BQ0413, BQ0500, and BQ0501 were determined in PC3-pip cells in real-time using LigandTracer Yellow (Ridgeview Instruments AB, Uppsala, Sweden). The activity binding was recorded with 5 nM radiolabeled tracers for 150 min. After the binding kinetics were measured, the medium containing the labeled tracer was replaced with fresh medium, and the dissociation was monitored over 7 h. The association rate (k a) and the dissociation rate (k d) were computed using a 1:2 kinetic binding model in TraceDrawer software (Ridgeview Instruments AB, Uppsala, Sweden), and the equilibrium dissociation constant K D was calculated.

PC3-pip cells [3] = test: cellular processing (membrane-bound / internalized activity); type: cell-based; conditions: 2 nM, continuous incubation, after 8 h
Experimental: To evaluate cellular processing of technetium-99m-labeled BQ0500 and BQ0501, PC3-pip cells were incubated with the radiolabeled tracer (2 nM), and at 1, 2, 4, and 8 h of continuous incubation, the membrane-bound and internalized fractions were collected as previously described using 4 M urea solution in 0.2 M glycine buffer (pH 2) to collect membrane-bound fraction and 1 N solution of NaOH to collect the internalized fraction. The activity in the samples was measured, and the percentage of membrane-bound and internalized activity was calculated. The experiments were performed in triplicate.

PC3-pip xenografts = test: biodistribution and tumor targeting in PC3-pip tumor-bearing mice; type: in vivo
Description: The injected masses for the in vivo experiments were chosen based on the findings for [^99mTc]-Tc-BQ0413: to study the general biodistribution of radiolabeled tracers in normal mice (NMRI), 40 pmol of tracer was used to avoid blocking of PSMA-mediated uptake in kidneys and salivary glands, to study tumor targeting, 5 nmol of tracer was used to decrease uptake in PSMA-expressing organs.
PSMA-expressing PCa xenografts were implanted in BALB/c nu/nu mice by subcutaneous injection of the PC3-pip cell suspension in PBS (10^7 cells/animal in 100 μL). The average animal weight in the experiment was 18 ± 2 g. The average tumor weight was 0.4 ± 0.2 g. For in vivo specificity control, 10^7 cells/animal PSMA-negative PC-3 cells were implanted. The average animal weight was 18 ± 1 g. The average tumor weight was 0.1 ± 0.1 g. Four mice per data point were used in the in vivo experiments.
For tumor-bearing mice, each mouse was intravenously injected with 5 nmol of [^99mTc]-Tc-BQ0413, [^99mTc]-Tc-BQ0500, and [^99mTc]-Tc-BQ0501 (60 kBq; the mass of the injected compound was adjusted with an unlabeled tracer). The mice were euthanized after lethal intraperitoneal injection of ketamine/xylazine, followed by exsanguination 1 and 3 h pi, similarly to the procedure described above.

[4] = PC3-pip tumor-bearing mice, 5 nmol/mouse iv, 1 h pi
[5] = PC3-pip tumor-bearing mice, 5 nmol/mouse iv, 3 h pi
[6] = PC3-pip tumor-bearing mice, 5 nmol/mouse iv, 3 h pi, listed as [99mTc]Tc-BQ0500

T1 sequence (Q04609 whole entry): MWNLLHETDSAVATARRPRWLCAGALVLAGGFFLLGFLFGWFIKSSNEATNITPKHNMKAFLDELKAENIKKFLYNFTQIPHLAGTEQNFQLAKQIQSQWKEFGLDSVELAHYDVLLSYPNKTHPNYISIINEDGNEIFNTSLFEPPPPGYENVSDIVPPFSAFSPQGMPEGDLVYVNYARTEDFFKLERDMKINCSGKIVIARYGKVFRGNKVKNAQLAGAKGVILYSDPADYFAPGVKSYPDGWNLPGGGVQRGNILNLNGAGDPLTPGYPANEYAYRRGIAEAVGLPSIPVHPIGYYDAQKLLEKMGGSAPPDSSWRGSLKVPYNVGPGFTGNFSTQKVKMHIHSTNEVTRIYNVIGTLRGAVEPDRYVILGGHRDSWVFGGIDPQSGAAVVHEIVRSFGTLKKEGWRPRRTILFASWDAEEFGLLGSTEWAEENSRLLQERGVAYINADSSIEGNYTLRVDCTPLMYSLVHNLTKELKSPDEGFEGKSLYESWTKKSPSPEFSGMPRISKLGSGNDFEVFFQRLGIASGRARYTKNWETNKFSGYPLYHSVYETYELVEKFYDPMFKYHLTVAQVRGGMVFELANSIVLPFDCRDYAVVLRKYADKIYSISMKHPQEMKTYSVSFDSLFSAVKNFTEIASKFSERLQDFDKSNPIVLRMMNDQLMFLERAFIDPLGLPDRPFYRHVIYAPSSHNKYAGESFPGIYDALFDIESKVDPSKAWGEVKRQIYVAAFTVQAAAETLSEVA

For `CC(=O)NC(CCCCNC(=O)CNC(=O)C(CCC(=O)O)NC(=O)C(CO)NC(=O)C(CCC(=O)O)NC(=O)CS)C(=O)NCCCCCCCC(=O)NC(Cc1ccc(O)cc1)C(=O)NC(Cc1ccc2ccccc2c1)C(=O)NCCCCC(NC(=O)NC(CCC(=O)O)C(=O)O)C(=O)O` (stereo not shown) [[^99mTc]Tc-BQ0500, metal not drawn], the “intact tracer in PBS” value ([1]; PBS control, 37 °C, n = 3) was 99.0 ± 0.5%, the “intact tracer in murine serum” value ([1]; mouse, 5 µg/mL) was 99.7 ± 0.3% and the “Log D (octanol–water distribution coefficient)” value (physchem) was −2.5 ± 0.1. For the same compound, the “activity uptake by PC3-pip cells” value (PC3-pip cells [2]; 2 nM tracer) was 71 ± 4 % of added activity, the “activity uptake by PC3-pip cells after presaturation with PSMA-11” value (PC3-pip cells [2]; 250-fold excess of nonlabeled PSMA-11, 2 nM tracer) was “significantly (p < 0.0001) decreased” and the “B max1 (binding maximum)” value (PSMA; 5 nM tracer, 1:2 model (1:1 for BQ0413)) was 881 CPS. For the same compound, the “B max2 (binding maximum)” value (PSMA; 5 nM tracer, 1:2 model, second interaction) was 40 CPS, the Kd (PSMA; 5 nM tracer, 1:2 model, second interaction, read-out: K D2) was 0.052 nM and the “affinity compromised in comparison with [99mTc]Tc-BQ0413” value (PSMA; PC3-pip cells) was 3–5 fold. For the same compound, the Kd (PSMA; as rounded in comparison table, read-out: K D1) was 0.3 nM, the Kd (PSMA; as rounded in comparison table, read-out: K D2) was 0.05 nM and the “maximum of internalized activity” value (PC3-pip cells [3]) was 42–43 % of cell-associated activity. The “activity uptake in intestines with content, higher compared to [99mTc]Tc-BQ0413” value (PC3-pip xenografts; PC3-pip tumor-bearing mice, 5 nmol) was 5.3 fold, the activity in carcass (PC3-pip xenografts; [4]) was 7 ± 1 ^b %IA/sample and the “activity in intestines with content” value (PC3-pip xenografts; [4]) was 3.9 ± 0.4 ^b, ^c, ^d %IA/sample. The “activity uptake in blood” value (PC3-pip xenografts; [4]) was 1.1 ± 0.2 ^b %IA/g, the “activity uptake in bone” value (PC3-pip xenografts; [4]) was 0.5 ± 0.1 ^b, ^d %IA/g and the “activity uptake in kidney” value (PC3-pip xenografts; [4]) was 51 ± 3 ^b ^c %IA/g. For the same compound, the “activity uptake in liver” value (PC3-pip xenografts; [4]) was 0.9 ± 0.2 ^b %IA/g, the “activity uptake in lung” value (PC3-pip xenografts; [4]) was 1.3 ± 0.2 ^b %IA/g and the “activity uptake in muscle” value (PC3-pip xenografts; [4]) was 0.3 ± 0.1 ^b %IA/g. For the same compound, the “activity uptake in pancreas” value (PC3-pip xenografts; [4]) was 0.4 ± 0.1 ^b %IA/g, the “activity uptake in salivary gland” value (PC3-pip xenografts; [4]) was 0.7 ± 0.1 ^b ^, ^d %IA/g and the “activity uptake in small intestines” value (PC3-pip xenografts; [4]) was 0.6 ± 0.2 ^c %IA/g. The “activity uptake in spleen” value (PC3-pip xenografts; [4]) was 2.5 ± 0.2 ^b %IA/g, the “activity uptake in stomach” value (PC3-pip xenografts; [4]) was 0.47 ± 0.02 ^d %IA/g and the “activity uptake in tumor” value (PC3-pip xenografts; [4]) was 29 ± 3 %IA/g. The tumor-to-blood ratio (PC3-pip xenografts; [4]) was 28 ± 6 ^b, the tumor-to-bone ratio (PC3-pip xenografts; [4]) was 65 ± 15 ^b ^, ^d and the tumor-to-kidney ratio (PC3-pip xenografts; [4]) was 0.6 ± 0.1 ^b ^, ^c. The tumor-to-liver ratio (PC3-pip xenografts; [4]) was 32 ± 7 ^b, the tumor-to-lung ratio (PC3-pip xenografts; [4]) was 23 ± 4 ^b and the tumor-to-muscle ratio (PC3-pip xenografts; [4]) was 101 ± 28 ^b. The tumor-to-pancreas ratio (PC3-pip xenografts; [4]) was 69 ± 13, the tumor-to-salivary gland ratio (PC3-pip xenografts; [4]) was 42 ± 8 ^b ^, ^d and the tumor-to-small intestines ratio (PC3-pip xenografts; [4]) was 51 ± 20. The tumor-to-spleen ratio (PC3-pip xenografts; [4]) was 12 ± 2 ^b, the tumor-to-stomach ratio (PC3-pip xenografts; [4]) was 61 ± 7 ^d and the activity in carcass (PC3-pip xenografts; [5]) was 4 ± 1 ^d %IA/sample. For the same compound, the “activity in intestines with content” value (PC3-pip xenografts; [5]) was 5.4 ± 0.3 ^c, ^d %IA/sample, the “activity uptake in blood” value (PC3-pip xenografts; [5]) was 0.3 ± 0.1 ^c ^, ^d %IA/g and the “activity uptake in bone” value (PC3-pip xenografts; [5]) was 0.10 ± 0.02 %IA/g. The “activity uptake in kidney” value (PC3-pip xenografts; [5]) was 33 ± 3 ^c, ^d %IA/g, the “activity uptake in liver” value (PC3-pip xenografts; [5]) was 0.4 ± 0.1 ^c %IA/g and the “activity uptake in lung” value (PC3-pip xenografts; [5]) was 0.4 ± 0.1 ^c %IA/g. For the same compound, the “activity uptake in muscle” value (PC3-pip xenografts; [5]) was 0.10 ± 0.03 %IA/g, the “activity uptake in pancreas” value (PC3-pip xenografts; [5]) was 0.3 ± 0.2 %IA/g and the “activity uptake in salivary gland” value (PC3-pip xenografts; [5]) was 0.2 ± 0.1 ^d %IA/g. The “activity uptake in small intestines” value (PC3-pip xenografts; [5]) was 0.4 ± 0.2 %IA/g, the “activity uptake in spleen” value (PC3-pip xenografts; [5]) was 1.4 ± 0.3 ^c %IA/g and the “activity uptake in stomach” value (PC3-pip xenografts; [5]) was 1.6 ± 1.2 ^c %IA/g. The tumor-to-bone ratio (PC3-pip xenografts; [5]) was 341 ± 100 ^d, the tumor-to-kidney ratio (PC3-pip xenografts; [5]) was 1.0 ± 0.2 ^c and the tumor-to-liver ratio (PC3-pip xenografts; [5]) was 79 ± 22 ^c. For the same compound, the tumor-to-lung ratio (PC3-pip xenografts; [5]) was 71 ± 15 ^c, the tumor-to-muscle ratio (PC3-pip xenografts; [5]) was 332 ± 99 and the tumor-to-pancreas ratio (PC3-pip xenografts; [5]) was 140 ± 82 ^c. For the same compound, the tumor-to-salivary gland ratio (PC3-pip xenografts; [5]) was 141 ± 42, the tumor-to-small intestines ratio (PC3-pip xenografts; [5]) was 94 ± 38 ^c and the tumor-to-spleen ratio (PC3-pip xenografts; [5]) was 22 ± 5 ^c. For the same compound, the tumor-to-stomach ratio (PC3-pip xenografts; [5]) was 38 ± 39 ^c, the activity in carcass (PC3-pip xenografts; [6]) was 4±1 %IA/sample and the “activity in intestines with content” value (PC3-pip xenografts; [6]) was 5.4±0.3 %IA/sample. The “activity uptake in blood” value (PC3-pip xenografts; [6]) was 0.3±0.1 %IA/g, the “activity uptake in bone” value (PC3-pip xenografts; [6]) was 0.10±0.02 %IA/g and the “activity uptake in kidney” value (PC3-pip xenografts; [6]) was 33±3 %IA/g. For the same compound, the “activity uptake in liver” value (PC3-pip xenografts; [6]) was 0.4±0.1 %IA/g, the “activity uptake in lung” value (PC3-pip xenografts; [6]) was 0.4±0.1 %IA/g and the “activity uptake in muscle” value (PC3-pip xenografts; [6]) was 0.10±0.03 %IA/g. For the same compound, the “activity uptake in pancreas” value (PC3-pip xenografts; [6]) was 0.3±0.2 %IA/g, the “activity uptake in salivary gland” value (PC3-pip xenografts; [6]) was 0.2±0.1 %IA/g and the “activity uptake in small intestines” value (PC3-pip xenografts; [6]) was 0.4±0.2 %IA/g. For the same compound, the “activity uptake in spleen” value (PC3-pip xenografts; [6]) was 1.4±0.3 %IA/g, the “activity uptake in stomach” value (PC3-pip xenografts; [6]) was 1.6±1.2 %IA/g and the “activity uptake in tumor” value (PC3-pip xenografts; [6]) was 31±4 %IA/g. The excretion pathway (PC3-pip xenografts; PC3-pip xenografts) was “predominantly renal”.
